For assay [1], the system named is stabilized aptamer (RNA, aptamer) GGCGAUACCAGCCGAAAGGCCCUUGGCAGCGCC
Nature of the assay: X-ray crystallography. The following applies: 30 mM NaCl, 5 mM MgCl2, 5 mM HEPES pH 7.5, 0.4 mM RNA, 1 mM ligand.

Assay [2] concerns aptamer-F (theophylline aptamer) (RNA, aptamer) GGCGAUACCAGCCGAAAGGCCCUUGGCAGCGUC
Nature of the assay: fluorescence strand invasion assay. The following applies: 10 mM NaCl, 5 mM MgCl2; 20 mM HEPES pH 7.5, 0.01% Tween-20; 37°C; inhibits invasion by BBQ-650 2'-F quencher strand (Q-invader); apparent.

Assay [3] deals with mutant aptamer-B (U24C) (RNA, aptamer, 3'-terminal (A)10 spacer is DNA (positions 34-43)) GGCGAUACCAGCCGAAAGGCCCUCGGCAGCGUC
Nature of the assay: surface plasmon resonance. The note with it: 150 mM NaCl, 5 mM MgCl2; 10 mM HEPES pH 7.4, 0.01-0.1% DMSO, 25°C; highest concentration 0.1-2.0 µM. (In SPR one partner is held on a chip, and binding of the other changes the refractive index at the surface.)

Assay [4] relates to aptamer-B (theophylline aptamer) (RNA, aptamer, 3'-terminal (A)10 spacer is DNA (positions 34-43)) GGCGAUACCAGCCGAAAGGCCCUUGGCAGCGUC
Nature of the assay: surface plasmon resonance. The following applies: 150 mM NaCl, 5 mM MgCl2; 10 mM HEPES pH 7.4, 0.01-0.1% DMSO, 25°C.

The subject of assay [5] is pentaloop aptamer (RNA, aptamer) GGCGAUACCAGCGAAACACGCCCUUGGCAGCGUC
Nature of the assay: X-ray crystallography, soaked crystal. The following applies: 30 mM KCl, 10 mM MgCl2 (RNA refolding); Fab-RNA crystals soaked in 1.1 mM TAL2, 1 h; ligand not precisely placed.

[6] abbreviates: crystals from cacodylate pH 6.5, PEG 8K, MPD.

For orientation: IC50 means the midpoint of a concentration-inhibition curve. Usually Kd stands for a measure of binding affinity in units of concentration. A low value points to higher affinity.

`Cn1c(=O)c2[nH]cnc2n(C)c1=O`: the values for the binding entry in assay [1] (setting [6]) and in assay [3] were “yes” and “no”, respectively. Also, the half-inhibitory concentration (IC50) in assay [2] is 1990 nM. This compound also displayed a Kd in assay [4] of 670 nM.

For `COc1cc2c(O)ncnc2cc1OCC1CCN(C)CC1`, in assay [1] (setting [6]), the binding entry is “yes”. Besides, the IC50 in assay [2] is 1160 nM. Also, the dissociation constant Kd in assay [4] was determined as 23 nM.

Turning to `Cn1c(=O)cnc2c(N)nc(=O)[nH]c21`, the binding entry in assay [1] (0.2 M Ca(OAc)2 in reservoir, crystals from PEG 3350, 20°C) is “yes”. For the same compound, the 50% inhibitory concentration (IC50) in assay [2] is 460 nM. The Kd in assay [4] turned out to be 2 nM.

For the compound `COc1cc2c(O)ncnc2cc1OCCCN1CCCCC1`, the binding result in assay [1] (setting [6]) and in assay [5] was “yes” each time. In addition, in assay [2], the 50% inhibitory concentration (IC50) was determined as 700 nM. Also, in assay [4], the Kd was found to be 9.1 nM.

`COc1cc2ncnc(N3CCN(CCCCO)CC3)c2cc1OC`: the binding entry in assay [1] (setting [6]) is “yes”. The IC50 in assay [2] is 1920 nM. In assay [4], this compound displayed a Kd of 280 nM.

Source of the values: paper PMC9860313 (2022).
